Measured values reported in PMC4610302 (Journal of Medicinal Chemistry, 2015).

Assays:
[1] = test system: OTUB2 gene in cells with only ERα; conditions: MCF-7 cells with only ERα, qPCR, 24 h
hERβ = hERβ (Homo sapiens, UniProt Q92731); conditions: HEC-1 reporter assay
[2] = target: purified full-length human ERβ (Homo sapiens, UniProt Q92731); assay: biochemical

Row | Reduction in potency on ERβ compared to 2a (hERβ) [fold] | Ki [2] [nM] | Structure (SMILES) | Stimulation of OTUB2 in cells with only ERα [1]
1 | ~4 |  | C/C(=N\O)c1cc(-c2ccc(O)c(F)c2)ccc1O [2c, (E)-1-(6-Hydroxy-3-(3-fluoro-4-hydroxyphenyl)phenyl)ethanone Oxime] | no stimulation
2 |  | 1.1 | C/C(=N\O)c1cc(-c2ccc(O)cc2)ccc1O [2a, (E)-1-(6-Hydroxy-3-(4-hydroxyphenyl)phenyl)ethanone Oxime] | no stimulation
